In data set [1] the test system is A2780 cis (human cisplatin resistant ovarian carcinoma). As to the kind of experiment: Cytotoxicity, fluorometric cell viability assay (resazurin), A2780 cis. The class given is cell-based. Particulars: A2780 cis (cisplatin resistant), 48 h incubation; read-out: IC50 (μM) A2780 cis. The procedure:
(§1) HeLa and CT-26 cell lines were cultured in DMEM media (Gibco) supplemented with 10% of fetal calf serum (Gibco). CT-26 LUC cell line was cultured in DMEM media (Gibco) supplemented with 10% of fetal calf serum (Gibco) and 1% Genticin. RPE-1 cell line was cultured in DMEM/F-12 media (Gibco) supplemented with 10% of fetal calf serum. […] The resistance of A2780 cis was maintained by cisplatin treatment (1 μM) for one week every month. […] U87 cell line was cultured in MEM media (Gibco) supplemented with 10% of fetal calf serum (Gibco) and 1% of non-essential amino acid mixture (Gibco). Cell lines were complemented with 100 U/ml penicillin-streptomycin mixture (Gibco) and maintained in humidified atmosphere at 37° C. and 5% of CO2.
(§2) Cytotoxicity of the tested Ru compounds according to the present invention was assessed by a fluorometric cell viability assay using Resazurin (ACROS Organics). […] After 24 h, cells were treated with increasing concentrations of the compounds. Compounds dilutions were prepared as follows: 2.5 mM stock in DMSO was further diluted to 100 μM with media and then filtrated. After 48 h incubation, medium was removed, and 100 μl of complete medium containing resazurin (0.2 mg/ml final concentration) was added. […] IC50 values were then calculated using GraphPad Prism software.

Data set [2] concerns A2780 (human ovarian carcinoma). Nature of the data set: Cytotoxicity, fluorometric cell viability assay (resazurin), A2780. The class given is cell-based. Particulars: A2780, 48 h incubation; read-out: IC50 (μM) A2780. The procedure:
as §1, §2

For data set [3], the system named is CT-26 LUC (mouse colon adenocarcinoma stably expressing luciferase). As to the kind of experiment: Cytotoxicity, fluorometric cell viability assay (resazurin), CT-26 LUC. The class given is cell-based. Particulars: CT-26 luc, 48 h incubation; read-out: IC50 (μM) CT-26 luc. The method, then:
as §1, §2

Data set [4] concerns CT-26 (mouse colon adenocarcinoma). As to the kind of experiment: Cytotoxicity, fluorometric cell viability assay (resazurin), CT-26. It is filed as cell-based. Particulars: CT-26, 48 h incubation; read-out: IC50 (μM) CT-26. The procedure: as §1, §2
For orientation: Resazurin is reduced to fluorescent resorufin, in cell work by metabolically active cells.

Data set [5] relates to solid Ehrlich tumour. As to the kind of experiment: Survival of mice bearing solid Ehrlich tumour. The class given is in vivo. Particulars: 5 mg/kg i.p. on days 1 and 7, tumour-bearing NMRI mice.
Text: A solid Ehrlich tumour was purchased from the Research Institute for Pharmacy and Biochemistry (VUFB) in Prague, and then maintained in NMRI mice by periodical transplantations. […] On the tenth day, half of the mice were sacrificed, and their tumours were weighed. The remaining animals were left in order to observe their survival.
One-Way Analysis of Variance with post-hoc Dunnetts's multiple comparison test was used to detect differences in tumour weight. Kaplan-Meier curves (FIG. 4) and logrank tests were used to compare survival times in groups. Here, the level of significance was α=0.05.
In data set [6] the test system is HeLa (human cervical). Nature of the data set: Cytotoxicity, fluorometric cell viability assay (resazurin), HeLa. It is filed as cell-based. The note with it: 48 h incubation, read-out: IC50 (μM) HeLa. The procedure:
as §1, §2

Data set [7] has as its system solid Ehrlich tumour. As to the kind of experiment: Tumour weight, solid Ehrlich tumour, day 10. Particulars: 5 mg/kg i.p. on days 1 and 7, measured on day 10.
Text: Values are the means±SEM (n=7 in each group).
A solid Ehrlich tumour was purchased from the Research Institute for Pharmacy and Biochemistry (VUFB) in Prague, and then maintained in NMRI mice by periodical transplantations. […] On the tenth day, half of the mice were sacrificed, and their tumours were weighed.
One-Way Analysis of Variance with post-hoc Dunnetts's multiple comparison test was used to detect differences in tumour weight.
Data set [8] relates to A2780 ADR (human doxorubicin resistant ovarian carcinoma). Nature of the data set: Cytotoxicity, fluorometric cell viability assay (resazurin), A2780 ADR. The class given is cell-based. Particulars: A2780 ADR (doxorubicin resistant), 48 h incubation; read-out: IC50 (μM) A2780 ADR. The method, then: as §1, §2
Data set [9] deals with RPE-1 (normal retina pigmented epithelial). Nature of the data set: Cytotoxicity, fluorometric cell viability assay (resazurin), RPE-1. It is filed as cell-based. The note with it: RPE-1 normal cells, 48 h incubation; read-out: IC50 (μM) RPE-1. The method, then:
as §1, §2

Data set [10] can be described thus: Encapsulation in polysorbate 80 (film rehydration). The note with it: in 50 mg/mL of polysorbate 80 in PBS, after 0.20 μm filtration. It is filed as physicochemical. The procedure: The solvent was removed by rotary evaporation at 40° C. The red film was then resuspended in PBS (2 mL) at room temperature. The solution was finally sterile filtered on a 0.20 μm nylon membrane (Corning© 431224) to yield a clear red solution.
50 μL of the sample was diluted in 100 μL of acetonitrile and the absorbance was recorded at 480 nm in 96 wells plates from Corning© (Fisher Scientific 15329740) using a SpectraMax M5 microplate Reader.
Encapsulation efficiency was calculated by comparing the absorbance of the solution before and after filtration using the following equation.
To ensure its repeatability, the procedure was performed in triplicate.

For orientation: IC50 means the concentration that inhibits the measured activity by half. As for `N.N.[Cl][Pt][Cl]` [Cisplatin], the IC50 in [1] is 18.3 ± 2.92 µM; in data set [2], 4 ± 0.76 µM; in data set [3], 2.42 ± 0.23 µM; in data set [4], 2.6 ± 0.18 µM; in [6] it was 9.28 ± 0.2 µM; in data set [8] it was 8.32 ± 0.71 µM. Further, in data set [9], the IC50 is 30.2 ± 5.11 µM. Further, in [5], the “geometric mean of overall survival” value stood at 33.7 days. The “effect on tumour growth (tumour weight)” value in data set [7] is on record as “significant inhibitory effect”.
In [10], “[Ru(DIP)2(3-Methoxysq)](PF6) [Compound 4]” yielded a concentration dissolved of 840 ± 60 µg/mL.
